Data as given in patent US9624170B2, “4-(piperrazin-1-yl)-pyrrolidin-2-one compounds as monoacylglycerol lipase (MAGL) inhibitors” (TAKEDA PHARMACEUTICAL COMPANY LIMITED, priority 2013, dated 2017).

These compounds were tested against T1, human MAGL (His-hMAGL) (Homo sapiens, UniProt Q99685) (assay: Measurement of MAGL inhibitory activity by mass spectrometry). Details: MAGL inhibitory rate, test compound 10 μM, His-hMAGL, substrate 2-arachidonylglycerol, RapidFire-mass spectrometry.
T1 construct: made in house; host or cells: Escherichia coli BL21(DE3)
T1 sequence (Q99685 1-303): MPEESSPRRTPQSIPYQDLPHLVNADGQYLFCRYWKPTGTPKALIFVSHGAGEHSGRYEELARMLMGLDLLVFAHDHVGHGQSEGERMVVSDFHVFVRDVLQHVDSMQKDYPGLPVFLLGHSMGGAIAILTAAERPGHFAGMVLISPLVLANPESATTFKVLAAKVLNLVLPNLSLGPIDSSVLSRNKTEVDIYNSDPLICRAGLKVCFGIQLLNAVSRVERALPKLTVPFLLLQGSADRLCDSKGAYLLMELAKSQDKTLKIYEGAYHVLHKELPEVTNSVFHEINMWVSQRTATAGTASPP
Assay type: biochemical
Method in brief: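 His-tagged human MAGL was reacted with 150 μM 2-arachidonylglycerol substrate (stock, added by 5 μL) for 10 min at room temperature, then stopped with formic acid. Arachidonic acid product was quantified by RapidFire–triple-quadrupole MS in negative SRM mode, corrected by arachidonic acid-d8, and converted to percent inhibition.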

| SMILES | inhibition at 10 µM |
| --- | --- |
| COc1cc(C(F)(F)F)ccc1-c1cccc(N2CC(N3CCN(C(=O)c4nccs4)CC3)CC2=O)c1 (centres unmarked) [Example 310, 1-(2′-methoxy-4′-(trifluoromethyl)biphenyl-3-yl)-4-(4-(1,3-thiazol-2-ylcarbonyl)piperazin-1-yl)pyrrolidin-2-one] | 98% |
| Cc1nn(C)c(C)c1-c1cccc(N2CC(N3CCN(C(=O)c4nccs4)CC3)CC2=O)c1 (centres unmarked) [Example 312] | 101% |
| O=C(c1nccs1)N1CCN(C2CC(=O)N(c3cccc(-c4cccc5c4OCC5)c3)C2)CC1 (centres unmarked) [Example 314, 1-(3-(2,3-dihydro-1-benzofuran-7-yl)phenyl)-4-(4-(1,3-thiazol-2-ylcarbonyl)piperazin-1-yl)pyrrolidin-2-one] | 104% |
| O=C(c1nccs1)N1CCN(C2CC(=O)N(c3cccc(-c4ccc(F)c(C(F)(F)F)c4)c3)C2)CC1 (centres unmarked) [Example 315, 1-(4′-fluoro-3′-(trifluoromethyl)biphenyl-3-yl)-4-(4-(1,3-thiazol-2-ylcarbonyl)piperazin-1-yl)pyrrolidin-2-one] | 101% |
| N#Cc1ccc(-c2cccc(N3CC(N4CCN(C(=O)c5nccs5)CC4)CC3=O)c2)c(F)c1 (centres unmarked) [Example 316, 2-fluoro-3′-(2-oxo-4-(4-(1,3-thiazol-2-ylcarbonyl)piperazin-1-yl)pyrrolidin-1-yl)biphenyl-4-carbonitrile] | 97% |
| NC(=O)Cc1cccc(-c2cccc(N3CC(N4CCN(C(=O)c5nccs5)CC4)CC3=O)c2)c1 (centres unmarked) [Example 319, 2-(3′-(2-oxo-4-(4-(1,3-thiazol-2-ylcarbonyl)piperazin-1-yl)pyrrolidin-1-yl)biphenyl-3-yl)acetamide] | 102% |
| O=C(c1cccc(-c2cccc(N3CC(N4CCN(C(=O)c5nccs5)CC4)CC3=O)c2)c1)N1CCCC1 (centres unmarked) [Example 321, 1-(3′-(pyrrolidin-1-ylcarbonyl)biphenyl-3-yl)-4-(4-(1,3-thiazol-2-ylcarbonyl)piperazin-1-yl)pyrrolidin-2-one] | 102% |
| Cc1cc(C#N)ccc1-c1cccc(N2CC(N3CCN(C(=O)c4nccs4)CC3)CC2=O)c1 (centres unmarked) [Example 322, 2-methyl-3′-(2-oxo-4-(4-(1,3-thiazol-2-ylcarbonyl)piperazin-1-yl)pyrrolidin-1-yl)biphenyl-4-carbonitrile] | 103% |
| COc1ccsc1-c1cccc(N2CC(N3CCN(C(=O)c4nccs4)CC3)CC2=O)c1 (centres unmarked) [Example 323, 1-(3-(3-methoxy-2-thienyl)phenyl)-4-(4-(1,3-thiazol-2-ylcarbonyl)piperazin-1-yl)pyrrolidin-2-one] | 100% |
| Cc1c(-c2cccc(N3CC(N4CCN(C(=O)c5nccs5)CC4)CC3=O)c2)cnn1C (centres unmarked) [Example 324, 1-(3-(1,5-dimethyl-1H-pyrazol-4-yl)phenyl)-4-(4-(1,3-thiazol-2-ylcarbonyl)piperazin-1-yl)pyrrolidin-2-one] | 101% |
| Cc1nn(C)cc1-c1cccc(N2CC(N3CCN(C(=O)c4nccs4)CC3)CC2=O)c1 (centres unmarked) [Example 325, 1-(3-(1,3-dimethyl-1H-pyrazol-4-yl)phenyl)-4-(4-(1,3-thiazol-2-ylcarbonyl)piperazin-1-yl)pyrrolidin-2-one] | 101% |
| O=C(c1nccs1)N1CCN(C2CC(=O)N(c3cccc(-c4c(F)c(F)c(F)c(F)c4F)c3)C2)CC1 (centres unmarked) [Example 330, 1-(2′,3′,4′,5′,6′-pentafluorobiphenyl-3-yl)-4-(4-(1,3-thiazol-2-ylcarbonyl)piperazin-1-yl)pyrrolidin-2-one] | 101% |
| Cn1ccnc1-c1cccc(N2CC(N3CCN(C(=O)c4nccs4)CC3)CC2=O)c1 (centres unmarked) [Example 333, 1-(3-(1-methyl-1H-imidazol-2-yl)phenyl)-4-(4-(1,3-thiazol-2-ylcarbonyl)piperazin-1-yl)pyrrolidin-2-one] | 83% |
| N#Cc1cccc(F)c1-c1cccc(N2CC(N3CCN(C(=O)c4nccs4)CC3)CC2=O)c1 (centres unmarked) [Example 336, 6-fluoro-3′-(2-oxo-4-(4-(1,3-thiazol-2-ylcarbonyl)piperazin-1-yl)pyrrolidin-1-yl)biphenyl-2-carbonitrile] | 100% |
| O=C(c1nccs1)N1CCN(C2CC(=O)N(c3cccc(-c4cccc5ccnn45)c3)C2)CC1 (centres unmarked) [Example 338, 1-(3-(pyrazolo[1,5-a]pyridin-7-yl)phenyl)-4-(4-(1,3-thiazol-2-ylcarbonyl)piperazin-1-yl)pyrrolidin-2-one] | 98% |
| COc1nccc(C)c1-c1cccc(N2CC(N3CCN(C(=O)c4nccs4)CC3)CC2=O)c1 (centres unmarked) [Example 339, 1-(3-(2-methoxy-4-methylpyridin-3-yl)phenyl)-4-(4-(1,3-thiazol-2-ylcarbonyl)piperazin-1-yl)pyrrolidin-2-one] | 100% |
| O=C(c1nccs1)N1CCN(C2CC(=O)N(c3cccc(-c4cccc5nccn45)c3)C2)CC1 (centres unmarked) [Example 340, 1-(3-(imidazo[1,2-a]pyridin-5-yl)phenyl)-4-(4-(1,3-thiazol-2-ylcarbonyl)piperazin-1-yl)pyrrolidin-2-one] | 99% |

Other lines, results leading:

| inhibition at 10 µM | SMILES |
| --- | --- |
| 103% | CC(C)Oc1ccccc1-c1cccc(N2CC(N3CCN(C(=O)c4nccs4)CC3)CC2=O)c1 (centres unmarked) [Example 309, 1-(2′-isopropoxybiphenyl-3-yl)-4-(4-(1,3-thiazol-2-ylcarbonyl)piperazin-1-yl)pyrrolidin-2-one] |
| 103% | O=C(c1nccs1)N1CCN(C2CC(=O)N(c3cccc(-c4cccc5ccccc45)c3)C2)CC1 (centres unmarked) [Example 311, 1-(3-(1-naphthyl)phenyl)-4-(4-(1,3-thiazol-2-ylcarbonyl)piperazin-1-yl)pyrrolidin-2-one] |
| 101% | O=C(c1nccs1)N1CCN(C2CC(=O)N(c3cccc(-c4cccc5ccsc45)c3)C2)CC1 (centres unmarked) [Example 313, 1-(3-(1-benzothiophen-7-yl)phenyl)-4-(4-(1,3-thiazol-2-ylcarbonyl)piperazin-1-yl)pyrrolidin-2-one] |
| 99% | O=C(c1nccs1)N1CCN(C2CC(=O)N(c3cccc(-c4cccc5cn[nH]c45)c3)C2)CC1 (centres unmarked) [Example 317, 1-(3-(1H-indazol-7-yl)phenyl)-4-(4-(1,3-thiazol-2-ylcarbonyl)piperazin-1-yl)pyrrolidin-2-one] |
| 103% | O=C(c1nccs1)N1CCN(C2CC(=O)N(c3cccc(-c4cccc5[nH]ncc45)c3)C2)CC1 (centres unmarked) [Example 318, 1-(3-(1H-indazol-4-yl)phenyl)-4-(4-(1,3-thiazol-2-ylcarbonyl)piperazin-1-yl)pyrrolidin-2-one] |
| 100% | O=C(c1nccs1)N1CCN(C2CC(=O)N(c3cccc(-c4cccc5cc[nH]c45)c3)C2)CC1 (centres unmarked) [Example 320, 1-(3-(1H-indol-7-yl)phenyl)-4-(4-(1,3-thiazol-2-ylcarbonyl)piperazin-1-yl)pyrrolidin-2-one] |
| 105% | Cn1ncc2c(-c3cccc(N4CC(N5CCN(C(=O)c6nccs6)CC5)CC4=O)c3)cccc21 (centres unmarked) [Example 326, 1-(3-(1-methyl-1H-indazol-4-yl)phenyl)-4-(4-(1,3-thiazol-2-ylcarbonyl)piperazin-1-yl)pyrrolidin-2-one] |
| 100% | O=C(c1nccs1)N1CCN(C2CC(=O)N(c3cccc(-c4c[nH]nc4C(F)(F)F)c3)C2)CC1 (centres unmarked) [Example 327, 4-(4-(1,3-thiazol-2-ylcarbonyl)piperazin-1-yl)-1-(3-(3-(trifluoromethyl)-1H-pyrazol-4-yl)phenyl)pyrrolidin-2-one] |
| 102% | O=C(c1nccs1)N1CCN(C2CC(=O)N(c3cccc(-c4coc5ccccc45)c3)C2)CC1 (centres unmarked) [Example 328, 1-(3-(1-benzofuran-3-yl)phenyl)-4-(4-(1,3-thiazol-2-ylcarbonyl)piperazin-1-yl)pyrrolidin-2-one] |
| 104% | O=C(c1nccs1)N1CCN(C2CC(=O)N(c3cccc(-c4cccc5ccoc45)c3)C2)CC1 (centres unmarked) [Example 329, 1-(3-(1-benzofuran-7-yl)phenyl)-4-(4-(1,3-thiazol-2-ylcarbonyl)piperazin-1-yl)pyrrolidin-2-one] |
| 101% | O=C(c1nccs1)N1CCN(C2CC(=O)N(c3cccc(-c4cnc5ccccn45)c3)C2)CC1 (centres unmarked) [Example 331, 1-(3-(imidazo[1,2-a]pyridin-3-yl)phenyl)-4-(4-(1,3-thiazol-2-ylcarbonyl)piperazin-1-yl)pyrrolidin-2-one] |
| 100% | O=C(c1nccs1)N1CCN(C2CC(=O)N(c3cccc(-c4n[nH]c5ccccc45)c3)C2)CC1 (centres unmarked) [Example 332, 1-(3-(1H-indazol-3-yl)phenyl)-4-(4-(1,3-thiazol-2-ylcarbonyl)piperazin-1-yl)pyrrolidin-2-one] |
| 103% | O=C(c1nccs1)N1CCN(C2CC(=O)N(c3cccc(-c4nsc5ccccc45)c3)C2)CC1 (centres unmarked) [Example 334, 1-(3-(1,2-benzothiazol-3-yl)phenyl)-4-(4-(1,3-thiazol-2-ylcarbonyl)piperazin-1-yl)pyrrolidin-2-one] |
| 101% | Cc1nc2ccccn2c1-c1cccc(N2CC(N3CCN(C(=O)c4nccs4)CC3)CC2=O)c1 (centres unmarked) [Example 335, 1-(3-(2-methylimidazo[1,2-a]pyridin-3-yl)phenyl)-4-(4-(1,3-thiazol-2-ylcarbonyl)piperazin-1-yl)pyrrolidin-2-one] |
| 99% | O=C(c1nccs1)N1CCN(C2CC(=O)N(c3cccc(-c4c[nH]c5ncccc45)c3)C2)CC1 (centres unmarked) [Example 337, 1-(3-(1H-pyrrolo[2,3-b]pyridin-3-yl)phenyl)-4-(4-(1,3-thiazol-2-ylcarbonyl)piperazin-1-yl)pyrrolidin-2-one] |
